From patent publication US20240343706A1, “PIPERIDINE-2,6-DIONE DERIVATIVES WHICH BIND TO CEREBLON, AND METHODS OF USE THEREOF” (Captor Therapeutics S.A., priority 2019, published 2024)

Experiments:
[1] = target: CRBN-DDB1 protein complex (Homo sapiens, UniProt Q96SW2); experiment: Fluorescence polarization (FP) assay, displacement of Cy5-labelled thalidomide; conditions: 25 nM CRBN-DDB1, 5 nM Cy5-labelled thalidomide, read-out: CRBN binding Ki
Protocol: CRBN-DDB1 protein complex was mixed with Cy5-labelled thalidomide and a compound to be tested (the “test compound”). […] The test solution was added to a 384-well assay plate.
The plate was spun-down (1 min, 1000 rpm, 22° C.) and then shaken using a VibroTurbulator for 10 min at room temperature (20-25° C.), with the frequency set to level 3. The assay plate with protein and the tracer was incubated for 60 min at room temperature (20-25° C.) prior to read-out with a plate reader.
The FP experiment was carried out with various concentrations of the test compounds in order to measure Ki values.

SALL4 = SALL4 degradation assay, Kelly cell line (western blot densitometry); format: cell-based; conditions: Kelly cells; for % of protein reduction based on densitometry values, SALL4 (24 H): summary Table 10, 20 μM (some compounds 10 and 20 μM); for % of SALL4 protein reduction, based on densitometry values: 24 h
Description: (§1) After primary and secondary Ab staining, the membranes were washed and signals developed. The densitometry analysis was implemented to obtain the numeric values used later in the protein level evaluation process.

CK1α = CK1α degradation assay, Kelly cell line (western blot densitometry); format: cell-based; conditions: Kelly cells; for % of protein reduction based on densitometry values, CK1α (24 H): summary Table 10, 20 μM (some compounds 10 and 20 μM); for % of CK1α protein reduction, based on densitometry values: 24 h
Description: as §1

IKZF1 = IKZF1 degradation assay, H929 cell line (western blot densitometry); format: cell-based; conditions: H929 cells; for % of protein reduction based on densitometry values, IKZF 1 (24 H): summary Table 10, 20 μM (some compounds 10 and 20 μM); for % of IKZF1 α protein reduction based on densitometry values: 24 h
Description: as §1

IKZF3 = IKZF3 degradation assay, H929 cell line (western blot densitometry); format: cell-based; conditions: H929 cells; for % of IKZF3 protein reduction based on densitometry values, IKZF3 Band I / % of IKZF3 protein reduction based on densitometry values, IKZF3 Band II: 24 h; for % of protein reduction based on densitometry values, IKZF3 (24 H): summary Table 10, 10 and 20 μM

CRBN-DDB1 protein complex, sequence (Q96SW2 whole entry): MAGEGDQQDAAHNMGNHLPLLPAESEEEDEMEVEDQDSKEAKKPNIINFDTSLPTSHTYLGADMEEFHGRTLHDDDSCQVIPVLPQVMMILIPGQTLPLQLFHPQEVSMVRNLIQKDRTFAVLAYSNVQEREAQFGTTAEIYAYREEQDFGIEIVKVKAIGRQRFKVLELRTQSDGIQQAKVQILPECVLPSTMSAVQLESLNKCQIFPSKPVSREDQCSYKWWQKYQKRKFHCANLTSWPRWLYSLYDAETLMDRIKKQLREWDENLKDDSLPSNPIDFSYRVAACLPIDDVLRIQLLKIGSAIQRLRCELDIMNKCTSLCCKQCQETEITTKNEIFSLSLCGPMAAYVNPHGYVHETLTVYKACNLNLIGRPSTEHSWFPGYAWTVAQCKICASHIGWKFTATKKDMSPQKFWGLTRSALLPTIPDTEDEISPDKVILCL
CRBN-DDB1 protein complex, sequence (Q16531 whole entry partner): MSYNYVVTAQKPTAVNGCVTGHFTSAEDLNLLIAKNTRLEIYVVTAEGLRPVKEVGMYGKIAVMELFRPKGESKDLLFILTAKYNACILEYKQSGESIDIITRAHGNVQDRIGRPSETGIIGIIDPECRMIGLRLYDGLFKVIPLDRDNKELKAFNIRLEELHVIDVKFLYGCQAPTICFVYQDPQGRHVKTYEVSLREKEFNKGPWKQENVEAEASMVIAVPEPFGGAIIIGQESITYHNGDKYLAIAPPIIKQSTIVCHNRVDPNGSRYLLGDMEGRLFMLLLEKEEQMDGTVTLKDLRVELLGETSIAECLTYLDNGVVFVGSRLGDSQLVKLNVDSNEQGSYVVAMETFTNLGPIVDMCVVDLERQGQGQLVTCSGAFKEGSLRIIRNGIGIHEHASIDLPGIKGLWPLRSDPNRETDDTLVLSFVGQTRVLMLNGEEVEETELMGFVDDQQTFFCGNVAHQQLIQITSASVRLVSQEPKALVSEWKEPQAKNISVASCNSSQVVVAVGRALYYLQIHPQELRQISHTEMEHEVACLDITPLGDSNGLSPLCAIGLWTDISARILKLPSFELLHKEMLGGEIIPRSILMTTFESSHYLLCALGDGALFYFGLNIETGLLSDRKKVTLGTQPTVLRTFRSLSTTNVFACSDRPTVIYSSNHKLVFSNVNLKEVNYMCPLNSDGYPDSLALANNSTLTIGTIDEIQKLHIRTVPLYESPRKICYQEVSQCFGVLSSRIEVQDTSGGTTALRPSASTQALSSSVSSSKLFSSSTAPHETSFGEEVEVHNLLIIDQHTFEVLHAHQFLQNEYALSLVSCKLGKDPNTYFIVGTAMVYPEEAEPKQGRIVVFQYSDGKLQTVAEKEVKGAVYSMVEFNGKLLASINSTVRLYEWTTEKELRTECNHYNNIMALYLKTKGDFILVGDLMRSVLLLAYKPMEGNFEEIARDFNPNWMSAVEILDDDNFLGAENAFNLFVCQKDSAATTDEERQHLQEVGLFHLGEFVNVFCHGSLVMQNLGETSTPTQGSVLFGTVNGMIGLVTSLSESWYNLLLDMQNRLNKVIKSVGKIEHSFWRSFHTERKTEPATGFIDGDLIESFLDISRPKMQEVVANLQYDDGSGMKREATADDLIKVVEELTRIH

Ki [1] [µM]	Compound	% of protein reduction based on densitometry values, SALL4 (24 H) (SALL4)	% of protein reduction based on densitometry values, CK1α (24 H) (CK1α)	% of protein reduction based on densitometry values, IKZF 1 (24 H) (IKZF1)	% of SALL4 protein reduction, based on densitometry values (SALL4; 10 μM)	% of SALL4 protein reduction, based on densitometry values (SALL4; 20 μM)	% of CK1α protein reduction, based on densitometry values (CK1α; 10 μM)	% of CK1α protein reduction, based on densitometry values (CK1α; 20 μM)	% of IKZF1 α protein reduction based on densitometry values (IKZF1; 10 μM)	% of IKZF1 α protein reduction based on densitometry values (IKZF1; 20 μM)	% of IKZF3 protein reduction based on densitometry values, IKZF3 Band I (IKZF3; 10 μM)	% of IKZF3 protein reduction based on densitometry values, IKZF3 Band II (IKZF3; 10 μM)	% of IKZF3 protein reduction based on densitometry values, IKZF3 Band I (IKZF3; 20 μM)	% of IKZF3 protein reduction based on densitometry values, IKZF3 Band II (IKZF3; 20 μM)	% of protein reduction based on densitometry values, IKZF3 (24 H) (IKZF3)
1 to 10	O=C1CCC(NC(=O)c2c(F)ccc3[nH]cnc23)C(=O)N1 (centres unmarked) [Compound 7, N-(2,6-dioxopiperidin-3-yl)-5-fluoro-1H-benzo[d]imidazole-4-carboxamide]	≤25% (≤25% for 0-25% of SALL4 protein reduction)	≤25% (≤25% for 0-25% of CK1a protein reduction)	≤25% (≤25% for 0-25% of IKZF1 protein reduction)											
10 to 50	O=C1CCC(NC(=O)c2ccnc3cc[nH]c23)C(=O)N1 (centres unmarked) [Compound 37, N-(2,6-dioxopiperidin-3-yl)-1H-pyrrolo[3,2-b]pyridine-7-carboxamide]	≤25% (≤25% for 0-25% of SALL4 protein reduction)	≤25% (≤25% for 0-25% of CK1a protein reduction)	≤25% (≤25% for 0-25% of IKZF1 protein reduction)											
< 1	O=C1CCC(NC(=O)c2cccc3[nH]c(C(F)(F)F)nc23)C(=O)N1 (centres unmarked) [Compound 25, N-(2,6-dioxopiperidin-3-yl)-2-(trifluoromethyl)-1H-benzo[d]imidazole-7-carboxamide]	≤25% (≤25% for 0-25% of SALL4 protein reduction)	≤25% (≤25% for 0-25% of CK1a protein reduction)	≤25% (≤25% for 0-25% of IKZF1 protein reduction)											
1 to 10	Cc1nc2c(C(=O)NC3CCC(=O)NC3=O)cncc2[nH]1 (centres unmarked) [Compound 35, N-(2,6-dioxopiperidin-3-yl)-2-methyl-3H-imidazo[4,5-c]pyridine-7-carboxamide]	≤25% (≤25% for 0-25% of SALL4 protein reduction)	≤25% (≤25% for 0-25% of CK1a protein reduction)	≤25% (≤25% for 0-25% of IKZF1 protein reduction)	≤25% (≤25% for 0-25% of SALL4 protein reduction)	≤25% (≤25% for 0-25% of SALL4 protein reduction)	≤25% (≤25% for 0-25% of CK1a protein reduction)	≤25% (≤25% for 0-25% of CK1a protein reduction)	≤25% (≤25% for 0-25% of IKZF1 protein reduction)	≤25% (≤25% for 0-25% of IKZF1 protein reduction)	≤25% (≤25% for 0-25% of IKZF3 protein reduction)	≤25% (≤25% for 0-25% of IKZF3 protein reduction)	≤25% (≤25% for 0-25% of IKZF3 protein reduction)	≤25% (≤25% for 0-25% of IKZF3 protein reduction)	≤25% (≤25% for 0-25% of IKZF3 protein reduction)
1 to 10	O=C1CCC(NC(=O)c2cccc3[nH]c(C(F)F)nc23)C(=O)N1 (centres unmarked) [Compound 23, 2-(difluoromethyl)-N-(2,6-dioxopiperidin-3-yl)-1H-benzo[d]imidazole-7-carboxamide]	≤25% (≤25% for 0-25% of SALL4 protein reduction)	≤25% (≤25% for 0-25% of CK1a protein reduction)	≤25% (≤25% for 0-25% of IKZF1 protein reduction)											

The remaining lines, values behind:

Compound	Ki [1] [µM]	% of protein reduction based on densitometry values, SALL4 (24 H) (SALL4)	% of protein reduction based on densitometry values, CK1α (24 H) (CK1α)	% of protein reduction based on densitometry values, IKZF 1 (24 H) (IKZF1)	% of SALL4 protein reduction, based on densitometry values (SALL4; 10 μM)	% of SALL4 protein reduction, based on densitometry values (SALL4; 20 μM)	% of CK1α protein reduction, based on densitometry values (CK1α; 10 μM)	% of CK1α protein reduction, based on densitometry values (CK1α; 20 μM)	% of IKZF1 α protein reduction based on densitometry values (IKZF1; 10 μM)	% of IKZF1 α protein reduction based on densitometry values (IKZF1; 20 μM)	% of IKZF3 protein reduction based on densitometry values, IKZF3 Band I (IKZF3; 10 μM)	% of IKZF3 protein reduction based on densitometry values, IKZF3 Band II (IKZF3; 10 μM)	% of IKZF3 protein reduction based on densitometry values, IKZF3 Band I (IKZF3; 20 μM)	% of IKZF3 protein reduction based on densitometry values, IKZF3 Band II (IKZF3; 20 μM)	% of protein reduction based on densitometry values, IKZF3 (24 H) (IKZF3)
CC(C)Cc1nc2c(C(=O)NC3CCC(=O)NC3=O)cccc2[nH]1 (centres unmarked) [Compound 24, N-(2,6-dioxopiperidin-3-yl)-2-isobutyl-1H-benzo[d]imidazole-7-carboxamide]	1 to 10	≤25% (≤25% for 0-25% of SALL4 protein reduction)	≤25% (≤25% for 0-25% of CK1a protein reduction)	≤25% (≤25% for 0-25% of IKZF1 protein reduction)											
O=C1CCC(NC(=O)c2cccc3c2NC(=O)C3)C(=O)N1 (centres unmarked) [Compound 1, N-(2,6-dioxopiperidin-3-yl)-2-oxoindoline-7-carboxamide]	10 to 50	≤25% (≤25% for 0-25% of SALL4 protein reduction)	≤25% (≤25% for 0-25% of CK1a protein reduction)	≤25% (≤25% for 0-25% of IKZF1 protein reduction)											
O=C1CCC(NC(=O)c2cccc3cnsc23)C(=O)N1 (centres unmarked) [Compound 50, N-(2,6-dioxopiperidin-3-yl)benzo[d]isothiazole-7-carboxamide]	1 to 10	≤25% (≤25% for 0-25% of SALL4 protein reduction)	≤25% (≤25% for 0-25% of CK1a protein reduction)	≤25% (≤25% for 0-25% of IKZF1 protein reduction)	≤25% (≤25% for 0-25% of SALL4 protein reduction)	≤25% (≤25% for 0-25% of SALL4 protein reduction)	≤25% (≤25% for 0-25% of CK1a protein reduction)	≤25% (≤25% for 0-25% of CK1a protein reduction)	≤25% (≤25% for 0-25% of IKZF1 protein reduction)	≤25% (≤25% for 0-25% of IKZF1 protein reduction)	≤25% (≤25% for 0-25% of IKZF3 protein reduction)	≤25% (≤25% for 0-25% of IKZF3 protein reduction)	≤25% (≤25% for 0-25% of IKZF3 protein reduction)	≤25% (≤25% for 0-25% of IKZF3 protein reduction)	≤25% (≤25% for 0-25% of IKZF3 protein reduction)
Nc1cccc2c1C(=O)N(C1CCC(=O)NC1=O)C2=O (centres unmarked) [Pomalidomide, reference compound]		≥75% (≥75% for 75-100% of SALL4 protein reduction)	>25% (>25% for 26-74% of CK1a protein reduction)	≥75% (≥75% for 75-100% of IKZF1 protein reduction)	≥75% (≥75% for 75-100% of SALL4 protein reduction)	≥75% (≥75% for 75-100% of SALL4 protein reduction)	>25% (>25% for 26-74% of CK1a protein reduction)	>25% (>25% for 26-74% of CK1a protein reduction)	≥75% (≥75% for 75-100% of IKZF1 protein reduction)	≥75% (≥75% for 75-100% of IKZF1 protein reduction)	≥75% (≥75% for 75-100% of IKZF3 protein reduction)	≥75% (≥75% for 75-100% of IKZF3 protein reduction)	≥75% (≥75% for 75-100% of IKZF3 protein reduction)	≥75% (≥75% for 75-100% of IKZF3 protein reduction)	≥75% (≥75% for 75-100% of IKZF3 protein reduction)
O=C1CCC(NC(=O)c2cc(F)cc3[nH]cnc23)C(=O)N1 (centres unmarked) [Compound 8, N-(2,6-dioxopiperidin-3-yl)-6-fluoro-1H-benzo[d]imidazole-4-carboxamide]	1 to 10	≤25% (≤25% for 0-25% of SALL4 protein reduction)	≤25% (≤25% for 0-25% of CK1a protein reduction)	≤25% (≤25% for 0-25% of IKZF1 protein reduction)											
Cn1cnc2c(C(=O)NC3CCC(=O)NC3=O)cccc21 (centres unmarked) [Compound 4, N-(2,6-dioxopiperidin-3-yl)-1-methyl-1H-benzo[d]imidazole-4-carboxamide]	1 to 10	≤25% (≤25% for 0-25% of SALL4 protein reduction)	≤25% (≤25% for 0-25% of CK1a protein reduction)	≤25% (≤25% for 0-25% of IKZF1 protein reduction)											
Cc1nc2c(C(=O)NC3CCC(=O)NC3=O)ccnc2[nH]1 (centres unmarked) [Compound 36, N-(2,6-dioxopiperidin-3-yl)-2-methyl-3H-imidazo[4,5-b]pyridine-7-carboxamide]	1 to 10	≤25% (≤25% for 0-25% of SALL4 protein reduction)	≤25% (≤25% for 0-25% of CK1a protein reduction)	≤25% (≤25% for 0-25% of IKZF1 protein reduction)											
